According to ChEMBL document CHEMBL5046216, “Disrupting Tryptophan in the Central Hydrophobic Region Selectively Mitigates Immunomodulatory Activities of the Innate Defence Regulator Peptide IDR-1002” (J Med Chem, 2021):
Values belong to the substance of their own block, whether it stands above or below them. Active and inactive are the calls of the source. No cut-off for these calls is given here.

How the values were obtained:
Mus musculus [1] = experiment: (§1) Antiinflammatory activity in house dust-mite-induced BALB/c mouse model of methacholine-induced airway hyperreactivity assessed as reduction in methacholine-induced tissue elastance at 6 mg/kg , ip administered for 2 weeks after methacholine-stimulation at 50 mg/ml measured 24 hrs post-HDM challenge; type: functional
Mus musculus [2] = experiment: Effect on IL-25 level in dust-mite-induced BALB/c mouse model of airway inflammation assessed as greater than 2 fold induction at 6 mg/kg, sc administered for 2 weeks and measured 24 hrs post-HDM challenge by MSD multiplex assay; type: functional, organism-based
Mus musculus [3] = experiment: Effect on IL-23 level in dust-mite-induced BALB/c mouse model of airway inflammation assessed as greater than 2 fold induction at 6 mg/kg, sc administered for 2 weeks and measured 24 hrs post-HDM challenge by MSD multiplex assay; type: functional, organism-based
Mus musculus [4] = experiment: (§2) Antiinflammatory activity in house dust-mite-induced BALB/c mouse model of methacholine-induced airway hyperreactivity assessed as reduction in methacholine-induced tissue damping at 6 mg/kg , ip administered for 2 weeks after methacholine-stimulation at 12 mg/ml measured 24 hrs post-HDM challenge; type: functional, organism-based
Mus musculus [5] = experiment: Effect on IL-6 level in dust-mite-induced BALB/c mouse model of airway inflammation assessed as greater than 2 fold induction at 6 mg/kg, sc administered for 2 weeks and measured 24 hrs post-HDM challenge by MSD multiplex assay; type: functional, organism-based
Mus musculus [6] = experiment: Effect on IL-30 level in dust-mite-induced BALB/c mouse model of airway inflammation assessed as greater than 2 fold induction at 6 mg/kg, sc administered for 2 weeks and measured 24 hrs post-HDM challenge by MSD multiplex assay; type: functional, organism-based
Mus musculus [7] = experiment: Effect on MIP1alpha level in dust-mite-induced BALB/c mouse model of airway inflammation assessed as greater than 2 fold induction at 6 mg/kg, sc administered for 2 weeks and measured 24 hrs post-HDM challenge by MSD multiplex assay; type: functional, organism-based
Mus musculus [8] = experiment: Effect on IL-2 level in dust-mite-induced BALB/c mouse model of airway inflammation assessed as greater than 2 fold induction at 6 mg/kg, sc administered for 2 weeks and measured 24 hrs post-HDM challenge by MSD multiplex assay; type: functional, organism-based
HBEC3-KT [9] = experiment: Antiinflammatory activity in human HBEC3-KT cells assessed as effect on MCP1 expression measured after 24 hrs by ELISA relative to control; type: functional, cell-based
Mus musculus [10] = experiment: Antiinflammatory activity in house dust-mite-induced BALB/c mouse model of methacholine-induced airway hyperreactivity assessed as reduction in methacholine-induced tissue elastance at 6 mg/kg , ip administered for 2 weeks after methacholine-stimulation at 12 mg/ml measured 24 hrs post-HDM challenge; type: functional, organism-based
Mus musculus [11] = experiment: Antiinflammatory activity in house dust-mite-induced BALB/c mouse model of airway inflammation assessed as suppression of total neutrophil count in BALF at 6 mg/kg, sc administered for 2 weeks and measured 24 hrs post-HDM challenge by Wright-Giemsa staining based microscopy; type: functional
Mus musculus [12] = experiment: Effect on IL-10 level in dust-mite-induced BALB/c mouse model of airway inflammation assessed as greater than 2 fold induction at 6 mg/kg, sc administered for 2 weeks and measured 24 hrs post-HDM challenge by MSD multiplex assay; type: functional, organism-based
Mus musculus [13] = experiment: Effect on IL-17C level in dust-mite-induced BALB/c mouse model of airway inflammation assessed as greater than 2 fold induction at 6 mg/kg, sc administered for 2 weeks and measured 24 hrs post-HDM challenge by MSD multiplex assay; type: functional, organism-based
Mus musculus [14] = experiment: Effect on IL-17AF level in dust-mite-induced BALB/c mouse model of airway inflammation assessed as greater than 2 fold induction at 6 mg/kg, sc administered for 2 weeks and measured 24 hrs post-HDM challenge by MSD multiplex assay; type: functional, organism-based
Mus musculus [15] = experiment: Effect on IL-15 level in dust-mite-induced BALB/c mouse model of airway inflammation assessed as greater than 2 fold induction at 6 mg/kg, sc administered for 2 weeks and measured 24 hrs post-HDM challenge by MSD multiplex assay; type: functional, organism-based
[16] = Stability of the compound in human HBEC3-KT cells assessed as compound degradation ay 10 uM measured after 16 hrs by FRET assay relative to control; type: functional
HBEC3-KT [17] = experiment: Antiinflammatory activity in human HBEC3-KT cells assessed as fold increase in IL-1RA expression at 10 uM measured after 24 hrs by ELISA relative to control; type: functional
Mus musculus [18] = experiment: Effect on IL-12p70 level in dust-mite-induced BALB/c mouse model of airway inflammation assessed as greater than 2 fold induction at 6 mg/kg, sc administered for 2 weeks and measured 24 hrs post-HDM challenge by MSD multiplex assay; type: functional, organism-based
Mus musculus [19] = experiment: as §2, with “newtonian resistance” for “tissue damping”; type: functional, organism-based
Mus musculus [20] = experiment: Effect on IL-21 level in dust-mite-induced BALB/c mouse model of airway inflammation assessed as greater than 2 fold induction at 6 mg/kg, sc administered for 2 weeks and measured 24 hrs post-HDM challenge by MSD multiplex assay; type: functional, organism-based
Mus musculus [21] = experiment: Effect on TNF 1 level in dust-mite-induced BALB/c mouse model of airway inflammation assessed as greater than 2 fold induction at 6 mg/kg, sc administered for 2 weeks and measured 24 hrs post-HDM challenge by MSD multiplex assay; type: functional, organism-based
Mus musculus [22] = experiment: Antiinflammatory activity in house dust-mite-induced BALB/c mouse model of airway inflammation assessed as suppression of IL-33 abundance in lung tissue lysate at 6 mg/kg, sc administered for 2 weeks and measured 24 hrs post-HDM challenge by ELISA; type: functional
HBEC3-KT [23] = experiment: Antiinflammatory activity in INFgamma-induced MCP1 expressed in human HBEC3-KT cells assessed as fold change measured after 24 hrs by ELISA relative to control; type: functional
Mus musculus [24] = experiment: Effect on IL-1beta level in dust-mite-induced BALB/c mouse model of airway inflammation assessed as greater than 2 fold induction at 6 mg/kg, sc administered for 2 weeks and measured 24 hrs post-HDM challenge by MSD multiplex assay; type: functional, organism-based
Mus musculus [25] = experiment: Effect on IFNgamma level in dust-mite-induced BALB/c mouse model of airway inflammation assessed as greater than 2 fold induction at 6 mg/kg, sc administered for 2 weeks and measured 24 hrs post-HDM challenge by MSD multiplex assay; type: functional, organism-based
Mus musculus [26] = experiment: Effect on IL-17F level in dust-mite-induced BALB/c mouse model of airway inflammation assessed as greater than 2 fold induction at 6 mg/kg, sc administered for 2 weeks and measured 24 hrs post-HDM challenge by MSD multiplex assay; type: functional, organism-based
Mus musculus [27] = experiment: Antiinflammatory activity in house dust-mite-induced BALB/c mouse model of airway inflammation assessed as suppression of total leukocyte count in BALF at 6 mg/kg, sc administered for 2 weeks and measured 24 hrs post-HDM challenge by Wright-Giemsa staining based microscopy; type: functional
[28] = Retention time of the compound by HPLC analysis; type: physicochemical
Mus musculus [29] = experiment: Effect on IL-31 level in dust-mite-induced BALB/c mouse model of airway inflammation assessed as greater than 2 fold induction at 6 mg/kg, sc administered for 2 weeks and measured 24 hrs post-HDM challenge by MSD multiplex assay; type: functional, organism-based
Mus musculus [30] = experiment: Effect on MIP2 level in dust-mite-induced BALB/c mouse model of airway inflammation assessed as greater than 2 fold induction at 6 mg/kg, sc administered for 2 weeks and measured 24 hrs post-HDM challenge by MSD multiplex assay; type: functional, organism-based
Mus musculus [31] = experiment: as §1, with “newtonian resistance” for “tissue elastance”; type: functional
Mus musculus [32] = experiment: Effect on IL-5 level in dust-mite-induced BALB/c mouse model of airway inflammation assessed as greater than 2 fold induction at 6 mg/kg, sc administered for 2 weeks and measured 24 hrs post-HDM challenge by MSD multiplex assay; type: functional, organism-based
Mus musculus [33] = experiment: Effect on MIP3alpha level in dust-mite-induced BALB/c mouse model of airway inflammation assessed as greater than 2 fold induction at 6 mg/kg, sc administered for 2 weeks and measured 24 hrs post-HDM challenge by MSD multiplex assay; type: functional, organism-based
HBEC3-KT [34] = experiment: Antiinflammatory activity in human HBEC3-KT cells assessed as fold increase in STC1 expression at 10 uM measured after 24 hrs by ELISA relative to control; type: functional
Mus musculus [35] = experiment: Effect on IL-22 level in dust-mite-induced BALB/c mouse model of airway inflammation assessed as greater than 2 fold induction at 6 mg/kg, sc administered for 2 weeks and measured 24 hrs post-HDM challenge by MSD multiplex assay; type: functional, organism-based
Mus musculus [36] = experiment: Effect on MCP1 level in dust-mite-induced BALB/c mouse model of airway inflammation assessed as greater than 2 fold induction at 6 mg/kg, sc administered for 2 weeks and measured 24 hrs post-HDM challenge by MSD multiplex assay; type: functional, organism-based
Mus musculus [37] = experiment: Antiinflammatory activity in house dust-mite-induced BALB/c mouse model of methacholine-induced airway hyperreactivity assessed as reduction in methacholine-induced tissue damping at 6 mg/kg , ip administered for 2 weeks after methacholine-stimulation at 50 mg/ml measured 24 hrs post-HDM challenge; type: functional
HBEC3-KT [38] = experiment: Immunomodulatory activity in human HBEC3-KT cells assessed as suppression of INFgamma-induced IL-33 at 10 uM preincubated for 30 mins followed by INFgamma stimulation and measured after 24 hrs by Western blot analysis; type: functional; details: 0.5 h
Mus musculus [39] = experiment: Effect on IL-9 level in dust-mite-induced BALB/c mouse model of airway inflammation assessed as greater than 2 fold induction at 6 mg/kg, sc administered for 2 weeks and measured 24 hrs post-HDM challenge by MSD multiplex assay; type: functional, organism-based
Mus musculus [40] = experiment: Effect on IL-17A level in dust-mite-induced BALB/c mouse model of airway inflammation assessed as greater than 2 fold induction at 6 mg/kg, sc administered for 2 weeks and measured 24 hrs post-HDM challenge by MSD multiplex assay; type: functional, organism-based
Mus musculus [41] = experiment: Antiinflammatory activity in house dust-mite-induced BALB/c mouse model of airway inflammation assessed as suppression of total eosinophil count in BALF at 6 mg/kg, sc administered for 2 weeks and measured 24 hrs post-HDM challenge by Wright-Giemsa staining based microscopy; type: functional
Mus musculus [42] = experiment: Effect on IL-4 level in dust-mite-induced BALB/c mouse model of airway inflammation assessed as greater than 2 fold induction at 6 mg/kg, sc administered for 2 weeks and measured 24 hrs post-HDM challenge by MSD multiplex assay; type: functional, organism-based
Mus musculus [43] = experiment: Effect on KC 10 level in dust-mite-induced BALB/c mouse model of airway inflammation assessed as greater than 2 fold induction at 6 mg/kg, sc administered for 2 weeks and measured 24 hrs post-HDM challenge by MSD multiplex assay; type: functional, organism-based
HBEC3-KT [44] = experiment: Cytotoxicity against human HBEC3-KT incubated for 24 hrs by LDH assay; type: functional
Mus musculus [45] = experiment: Effect on IP10 level in dust-mite-induced BALB/c mouse model of airway inflammation assessed as greater than 2 fold induction at 6 mg/kg, sc administered for 2 weeks and measured 24 hrs post-HDM challenge by MSD multiplex assay; type: functional, organism-based

Retention_time [28]: 16.16 min
Substance: H-VQRWLIVWRIRK-OH
Activity (Mus musculus [1]): Active
Activity (Mus musculus [2]): inactive
Activity (Mus musculus [3]): inactive
Activity (Mus musculus [4]): Active
Activity (Mus musculus [5]): inactive
Activity (Mus musculus [6]): inactive
Activity (Mus musculus [7]): inactive
Activity (Mus musculus [8]): inactive
Activity (HBEC3-KT [9]): inactive
Activity (Mus musculus [10]): Active
Activity (Mus musculus [11]): 60%
Activity (Mus musculus [12]): inactive
Activity (Mus musculus [13]): inactive
Activity (Mus musculus [14]): inactive
Activity (Mus musculus [15]): inactive
Activity [16]: <5%
fold change (FC) (HBEC3-KT [17]): 2.6
Activity (Mus musculus [18]): inactive
Activity (Mus musculus [19]): Active
Activity (Mus musculus [20]): inactive
Activity (Mus musculus [21]): inactive
Activity (Mus musculus [22]): >40%
fold change (FC) (HBEC3-KT [23]): 3.8
Activity (Mus musculus [24]): inactive
Activity (Mus musculus [25]): inactive
Activity (Mus musculus [26]): inactive
Activity (Mus musculus [27]): 66%
Activity (Mus musculus [29]): inactive
Activity (Mus musculus [30]): inactive
Activity (Mus musculus [31]): Active
Activity (Mus musculus [32]): inactive
Activity (Mus musculus [33]): inactive
fold change (FC) (HBEC3-KT [34]): 4
Activity (Mus musculus [35]): inactive
Activity (Mus musculus [36]): inactive
Activity (Mus musculus [37]): Active
Activity (HBEC3-KT [38]): 85%
Activity (Mus musculus [39]): inactive
Activity (Mus musculus [40]): inactive
Activity (Mus musculus [41]): 63%
Activity (Mus musculus [42]): inactive
Activity (Mus musculus [43]): inactive
Activity (HBEC3-KT [44]): <=15%
Activity (Mus musculus [45]): inactive

Retention_time [28]: 18.47 min
Substance: H-VQRWLIVWRIWK-OH
Activity (HBEC3-KT [44]): 50%

Retention_time [28]: 18.05 min
Substance: H-VQRWLIVWVIRK-OH
Activity (HBEC3-KT [44]): 50%

Retention_time [28]: 16.06 min
Substance: H-VRRWLIVWRIRK-OH
Activity (HBEC3-KT [9]): inactive
fold change (FC) (HBEC3-KT [17]): 2.6
fold change (FC) (HBEC3-KT [23]): 2.9
fold change (FC) (HBEC3-KT [34]): 6
Activity (HBEC3-KT [38]): 70%
Activity (HBEC3-KT [44]): <=15%
